Measured values as given in publication PMC10753557, “Design and Evaluation of Synthesized Pyrrole Derivatives as Dual COX-1 and COX-2 Inhibitors Using FB-QSAR Approach” (ACS Omega, 2023).

How the values were obtained:
[1] = biological target: T1, COX-2 (Homo sapiens, UniProt P35354); test: COX-2 fluorometric inhibitor screening kit (BioVision); assay type: biochemical
T1 construct: purchased BioVision
T1 sequence (P35354 18-604): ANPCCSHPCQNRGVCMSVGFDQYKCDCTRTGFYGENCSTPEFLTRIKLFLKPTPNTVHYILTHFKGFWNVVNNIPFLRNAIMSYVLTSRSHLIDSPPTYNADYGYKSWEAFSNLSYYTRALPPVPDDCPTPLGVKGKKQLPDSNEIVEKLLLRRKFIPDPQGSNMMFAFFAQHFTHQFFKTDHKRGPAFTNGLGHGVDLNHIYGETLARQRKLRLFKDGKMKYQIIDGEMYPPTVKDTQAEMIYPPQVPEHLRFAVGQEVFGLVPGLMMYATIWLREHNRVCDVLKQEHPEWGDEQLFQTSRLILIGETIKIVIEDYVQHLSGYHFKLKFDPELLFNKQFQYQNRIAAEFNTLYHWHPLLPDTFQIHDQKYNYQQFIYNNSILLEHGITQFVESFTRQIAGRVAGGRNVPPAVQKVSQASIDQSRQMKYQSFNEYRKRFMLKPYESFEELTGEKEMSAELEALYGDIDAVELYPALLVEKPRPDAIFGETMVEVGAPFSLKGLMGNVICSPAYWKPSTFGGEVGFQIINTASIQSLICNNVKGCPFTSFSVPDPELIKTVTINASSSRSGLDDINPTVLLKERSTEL
Protocol: (§1) To conduct the inhibition assay, the kit components were prepared as follows: The COX-1/COX-2 enzyme solutions were created by reconstituting the lyophilized powder with 110 μL of ddH2O. A diluted COX cofactor was formed by combining a COX assay buffer (398 μL) and a COX cofactor (2 μL). The arachidonic acid/NaOH solution was diluted with 5 μL of arachidonic acid, 5 μL of NaOH, and 90 μL of ddH2O. These solutions were combined to generate the reaction mixture (80 μL) for each well, consisting of the COX assay buffer (76 μL), the COX probe (1 μL), the diluted COX cofactor (2 μL), and the COX-1/COX-2 enzyme solution (1 μL). Test compounds (10 μL) were added, followed by incubation for 5–10 min at 25 °C. To […] the reaction, 10 μL of diluted arachidonic acid/NaOH solution was added. […] The assay was performed in quadruplicate with a blank and control, testing all inhibitor concentrations. The mean ± standard deviation (SD) of the percentage inhibition results were calculated, and IC50 values were determined using GraphPad PRISM software (version 5.0) by plotting the percentage inhibition against the log concentration. Additionally, the selectivity index (SI) was calculated by dividing IC50(COX-1) by IC50(COX-2).

[2] = biological target: T2, COX-1 (Ovis aries, UniProt P05979); test: COX-1 fluorometric inhibitor screening kit (BioVision); assay type: biochemical
T2 construct: purchased
T2 sequence (P05979 25-600): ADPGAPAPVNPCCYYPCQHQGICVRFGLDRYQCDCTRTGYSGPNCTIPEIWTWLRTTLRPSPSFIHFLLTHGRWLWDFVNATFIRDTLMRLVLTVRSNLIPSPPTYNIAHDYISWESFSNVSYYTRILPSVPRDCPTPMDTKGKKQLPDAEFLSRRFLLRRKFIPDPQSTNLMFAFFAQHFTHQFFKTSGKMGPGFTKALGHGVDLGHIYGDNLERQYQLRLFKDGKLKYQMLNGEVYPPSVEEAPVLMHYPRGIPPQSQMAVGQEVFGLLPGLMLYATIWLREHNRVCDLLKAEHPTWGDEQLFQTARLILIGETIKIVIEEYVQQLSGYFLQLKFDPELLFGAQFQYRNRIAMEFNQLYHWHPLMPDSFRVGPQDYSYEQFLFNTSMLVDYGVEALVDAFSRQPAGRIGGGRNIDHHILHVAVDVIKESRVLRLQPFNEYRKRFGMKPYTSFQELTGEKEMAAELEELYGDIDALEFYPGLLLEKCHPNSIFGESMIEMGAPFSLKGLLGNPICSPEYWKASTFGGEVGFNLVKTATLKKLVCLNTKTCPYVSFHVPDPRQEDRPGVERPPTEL
Protocol: as §1

[3] = 1 μM compound, mean ± SD, quadruplicate
[4] = 10 μM compound, mean ± SD, quadruplicate

## CCOC(=O)c1cc(-c2c(OC)cccc2OC)n(CC(=O)O)c1C [Compound 4g]
[1]; [3]
  COX-2% Inhibition 1 μM: 83.033 ± 1.878%
[1]; [4]
  COX-2% Inhibition 10 μM: 90.967 ± 2.022%
[1]; BioVision's kit protocol
  experimental activity on COX-2 (pIC50): 6.7258
[1]; COX-1 vs COX-2, classification in conclusions
  COX subtype selectivity: nonselective inhibitors
[1]; fluorometric kit
  IC50: 188 ± 8 nM
[2]; [3]
  COX-1% Inhibition 1 μM: 84.517 ± 2.036%
[2]; [4]
  COX-1% Inhibition 10 μM: 92.366 ± 2.731%
[2]; BioVision's kit protocol
  experimental activity on COX-1 (pIC50): 6.93
[2]; fluorometric kit
  IC50: 117 ± 5 nM

## CS(=O)(=O)Nc1ccc([N+](=O)[O-])cc1Oc1ccccc1 [nimesulide, reference compound]
[1]; read-out: COX-2% Inhibition 1 μM
  inhibition at 1 µM: 89.6 ± 1.05%
[1]; read-out: COX-2% Inhibition 10 μM
  inhibition at 10 µM: 97.8 ± 1.21%
